From patent US10278942B2 (PELOTON THERAPEUTICS, INC., priority 2015, dated 2019)
Where two headings read alike, the source gives them in different places.

What was measured:
786-O-Hif-Luc cells = test: Luciferase Assay (HIF responsive elements reporter); conditions: read-out: Mean Luciferase EC50 (nM), 786-O-Hif-Luc cells
Procedure: A pool of infected cells were then selected against 2 μg/mL of puromycin (P8833, Sigma) for 10 days followed by limited dilution to select single clones. […] Each concentration was tested in triplicate. After about 24 hours, luciferase activity was determined using ONE-Glo Luciferase Assay Reagent (E6110, Promega) following the manufacturer's recommended procedure. EC50 were calculated using Dotmatics software.

[1] = molecular target: T1, HIF-2α HIS TAG-PASB Domain (Homo sapiens, UniProt Q99814); test: HIF-2α Scintillation Proximity Assay (SPA); type: binding
T1 construct: 100 nM HIF-2α HIS TAG-PASB Domain
Method in brief: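 IC50 values rest on percent inhibition, where the sample signal is scaled between high and low controls. Wells contain about 100 μL: compound dispensed as 2 μL of DMSO solution, 88 μL protein-probe mix and 10 μL of beads.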

[2] = read-out: Scintillation Proximity Assay IC50

T1 sequence (Q99814 240-350 limits assumed): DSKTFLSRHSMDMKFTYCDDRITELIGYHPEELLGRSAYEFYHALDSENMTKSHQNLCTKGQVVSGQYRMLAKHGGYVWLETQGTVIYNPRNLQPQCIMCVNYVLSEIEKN

| EC50 (786-O-Hif-Luc cells) | IC50 [1, 2] | IC50 ([1]; Scintillation Proximity Assay IC50 (nM)) | SMILES |
| --- | --- | --- | --- |
| > 1000 nM | > 1000 nM | – | Cc1cncc(Oc2ccc3c(c2Br)[C@@H](O)C(F)(F)S3(=O)=O)c1 [Compound 428] |
| > 1000 nM | < 50 nM | – | O=S(=O)(c1ccc(OC2CCNCC2)c2c1C(O)C(F)(F)C2)C(F)(F)F (centres unmarked) [Compound 607] |
| 50 to 249 nM | < 50 nM | – | N#Cc1cc(Oc2ccc(S(=O)(=O)C(F)F)c3c2CC(F)(F)[C@H]3O)ccc1F [Compound 200] |
| 250 to 1000 nM | 250 to 1000 nM | – | CC1(COc2ccc(S(=O)(=O)C(F)(F)F)c3c2CC(F)(F)C3O)COC1 (centres unmarked) [Compound 622] |
| 250 to 1000 nM | 50 to 249 nM | – | N#Cc1cccc(-c2ccc(S(=O)(=O)C(F)(F)F)c3c2CC(F)(F)[C@H]3O)c1 [Compound 569] |
| 250 to 1000 nM | 50 to 249 nM | – | CCCc1ccc(S(=O)(=O)C(F)(F)F)c2c1CC(F)(F)C2O (centres unmarked) [Compound 517] |
| 250 to 1000 nM | 50 to 249 nM | – | CS(=O)(=O)c1ccc(Oc2cc(F)cc(C#N)c2)c2c1[C@H](O)C[C@@H]2F [Compound 295] |
| 50 to 249 nM | 50 to 249 nM | – | OC1c2c(C(F)(F)F)ccc(OCC(F)F)c2CC1(F)F (centres unmarked) [Compound 686] |
| 50 to 249 nM | 250 to 1000 nM | – | N#Cc1cncc(Oc2ccc(S(=O)(=O)C(F)F)c3c2CC(F)(F)[C@H]3O)c1 [Compound 27] |
| 50 to 249 nM | < 50 nM | – | O[C@@H]1CCc2c(Oc3cc(F)cc(F)c3)ccc(C(F)(F)F)c21 [Compound 58] |
| 50 to 249 nM | 50 to 249 nM | – | O=S(=O)(c1ccc([C@@H]2CCC[C@@H](O)C2)c2c1[C@H](O)C(F)(F)C2)C(F)(F)F [Compound 480, (S)-2,2-difluoro-4-((1R,3R)-3-hydroxycyclohexyl)-7-((trifluoromethyl)sulfonyl)-2,3-dihydro-1H-inden-1-ol] |
| 250 to 1000 nM | > 1000 nM | – | N=S1(=O)c2ccc(Oc3cc(F)cc(F)c3)c(Br)c2C(O)C1(F)F (centres unmarked) [Compound 377] |
| > 1000 nM | 250 to 1000 nM | – | O=S(=O)(c1ccc(Oc2cc(F)cc(Cl)c2)c(Cl)c1CCl)C(F)F [Compound 46] |
| > 1000 nM | 250 to 1000 nM | – | CC(=O)c1c(S(=O)(=O)C(F)(F)F)ccc(Oc2cc(F)cc(Cl)c2)c1Br [Compound 104] |
| 250 to 1000 nM | 250 to 1000 nM | – | O=S(=O)(c1ccc(Oc2cccc3[nH]ncc23)c2c1C(O)C(F)(F)C2)C(F)(F)F (centres unmarked) [Compound 243] |
| > 1000 nM | 250 to 1000 nM | – | CS(=O)(=O)c1ccc(OC[C@H]2C[C@H]2C#N)c2c1[C@H](O)C(F)(F)[C@@H]2F [Compound 765] |
| > 1000 nM | > 1000 nM | – | CS(=O)(=O)c1ccc(OCC2CC2)c2c1[C@H](O)C(F)(F)C2 [Compound 779] |
| 250 to 1000 nM | 50 to 249 nM | – | O=S(=O)(c1ccc(OCc2ccccc2)c2c1C(O)C(F)(F)C2)C(F)(F)F (centres unmarked) [Compound 663] |
| > 1000 nM | > 1000 nM | – | O=S(=O)(c1ccc(OC2CCC(O)CC2)c2c1C(O)C(F)(F)C2)C(F)(F)F (centres unmarked) [Compound 618] |
| 250 to 1000 nM | 50 to 249 nM | – | O=S(=O)(c1ccc(OC2CC3(COC3)C2)c2c1[C@H](O)C(F)(F)C2)C(F)(F)F [Compound 718] |
| 50 to 249 nM | < 50 nM | – | N#Cc1c(Oc2cc(F)cc(Cl)c2)ccc2c1[C@@H](O)CS2(=O)=O [Compound 348] |

| EC50 (786-O-Hif-Luc cells) | IC50 [1, 2] | IC50 ([1]; Scintillation Proximity Assay IC50 (nM)) | SMILES |
| --- | --- | --- | --- |
| < 50 nM | < 50 nM | – | CC(Oc1ccc(S(=O)(=O)C(F)(F)F)c2c1CC(F)(F)C2O)C1CC1 (centres unmarked) [Compound 746] |
| > 1000 nM | 50 to 249 nM | – | O=S(=O)(c1ccc(Oc2ccc(F)c(F)c2)c2c1C(O)CC2)C(F)(F)F (centres unmarked) [Compound 214] |
| 250 to 1000 nM | 50 to 249 nM | – | CO[C@H]1C[C@H](Oc2ccc(S(=O)(=O)C(F)(F)F)c3c2CC(F)(F)[C@H]3O)C1 [Compound 714] |
| 250 to 1000 nM | > 1000 nM | – | N#Cc1cc(F)cc(Oc2ccc3c(c2C#N)[C@@H](O)CS3(=O)=O)c1 [Compound 416] |
| > 1000 nM | > 1000 nM | – | CS(=O)(=O)c1ccc(O[C@H]2C[C@](C)(C#N)C2)c2c1[C@H](O)C(F)(F)[C@@H]2F [Compound 767] |
| 250 to 1000 nM | < 50 nM | – | O=S(=O)(c1ccc(Oc2cccc3[nH]ncc23)c2c1[C@H](O)C(F)(F)C2)C(F)(F)F [Compound 263] |
| > 1000 nM | 250 to 1000 nM | – | O=S(=O)(c1ccc(Oc2ccc(F)c(Cl)c2)c2c1[C@H](O)CC2)C(F)F [Compound 157] |
| 250 to 1000 nM | 250 to 1000 nM | – | C#CCOc1ccc(S(=O)(=O)C(F)(F)F)c2c1CC(F)(F)[C@H]2O [Compound 711] |
| 250 to 1000 nM | 50 to 249 nM | – | COC[C@H](C)Oc1ccc(S(=O)(=O)C(F)(F)F)c2c1CC(F)(F)[C@H]2O [Compound 660] |
| > 1000 nM | < 50 nM | – | CS(=O)(=O)c1ccc(O[C@H]2C[C@](F)(C#N)C2)c2c1[C@H](O)C(F)(F)[C@@H]2F [Compound 741] |
| > 1000 nM | 250 to 1000 nM | – | N#CC1(CCOc2ccc(S(=O)(=O)C(F)(F)F)c3c2CC(F)(F)[C@H]3O)COC1 [Compound 749] |
| 250 to 1000 nM | 50 to 249 nM | – | CCCOc1ccc(I)c2c1CC(F)(F)C2O (centres unmarked) [Compound 682] |
| > 1000 nM | 50 to 249 nM | – | OC1c2c(C(F)F)ccc(OCC(F)F)c2CC1(F)F (centres unmarked) [Compound 586] |
| > 1000 nM | 50 to 249 nM | – | CC(C)(C#N)COc1ccc(S(=O)(=O)C(F)(F)F)c2c1CCC2O (centres unmarked) [Compound 609] |
| 250 to 1000 nM | 50 to 249 nM | – | CS(=O)(=O)c1ccc(OCC2CC(F)(F)C2)c2c1[C@H](O)C(F)(F)[C@@H]2F [Compound 759] |
| 250 to 1000 nM | 250 to 1000 nM | – | CC(C)(O)COc1ccc(S(=O)(=O)C(F)(F)F)c2c1CC(F)(F)[C@H]2O [Compound 750] |
| > 1000 nM | 250 to 1000 nM | – | O=S(=O)(c1ccc(Nc2cc(F)cc(F)c2)c2c1C(O)CC2)C(F)(F)F (centres unmarked) [Compound 506] |
| 250 to 1000 nM | 250 to 1000 nM | – | COCCOc1ccc(S(=O)(=O)C(F)(F)F)c2c1CC(F)(F)C2O (centres unmarked) [Compound 595] |
| > 1000 nM | > 1000 nM | – | N#Cc1cc(F)cc(Oc2ccc(S(=O)(=O)C(F)(F)F)c3c2CC(F)(F)[C@H]3NCCO)c1 [Compound 291] |
| 250 to 1000 nM | 250 to 1000 nM | – | O=S(=O)(c1ccc(Oc2cncc(Cl)c2)c2c1[C@H](O)CC2)C(F)F [Compound 3] |
| 250 to 1000 nM | 250 to 1000 nM | – | O=S(=O)(c1ccc(O[C@H]2C[C@H](O)C2)c2c1C(O)C(F)(F)C2)C(F)(F)F (some centres unmarked) [Compound 644] |

| EC50 (786-O-Hif-Luc cells) | IC50 [1, 2] | IC50 ([1]; Scintillation Proximity Assay IC50 (nM)) | SMILES |
| --- | --- | --- | --- |
| > 1000 nM | > 1000 nM | – | CS(=O)(=O)c1ccc(Sc2cccc(C#N)c2)c2c1[C@H](O)C(F)(F)[C@@H]2F [Compound 492, 3-(((1S,3R)-2,2,3-trifluoro-1-hydroxy-(methylsulfonyl)-2,3-dihydro-1H-inden-4-yl)thio)benzonitrile] |
| > 1000 nM | > 1000 nM | – | CC(C)(COc1ccc(S(=O)(=O)C(F)(F)F)c2c1CC(F)(F)[C@H]2O)S(C)(=O)=O [Compound 723] |
| 250 to 1000 nM | 50 to 249 nM | – | CS(=N)(=O)c1ccc(Oc2cc(F)cc(F)c2)c2c1C(O)C(F)(F)C2 (centres unmarked) [Compound 192] |
| > 1000 nM | 50 to 249 nM | – | CC1(C)CC(c2ccc(S(=O)(=O)C(F)(F)F)c3c2CC(F)(F)[C@H]3O)=CC(O)C1 (some centres unmarked) [Compound 551] |
| > 1000 nM | > 1000 nM | – | Cc1nnc(/C=C/c2c(S(=O)(=O)C(F)(F)F)ccc(Oc3cc(F)cc(C#N)c3)c2C)o1 [Compound 151] |
| 250 to 1000 nM | 50 to 249 nM | – | N#Cc1c(S(=O)(=O)C(F)F)ccc(Oc2cc(F)cc(Cl)c2)c1Cl [Compound 38] |
| 50 to 249 nM | 50 to 249 nM | – | O=S(=O)(c1ccc(Oc2cc(Cl)c[n+]([O-])c2)c2c1[C@H](O)C(F)(F)C2)C(F)(F)F [Compound 260] |
| 250 to 1000 nM | 50 to 249 nM | – | COc1cc(F)cc(Oc2ccc3c(c2Br)[C@@H](O)C(F)(F)S3(=O)=O)c1 [Compound 426] |
| > 1000 nM | 250 to 1000 nM | – | O=S(=O)(c1ccc(Oc2cc(Cl)cc(Cl)c2)c(Br)c1)C(F)(F)F [Compound 172] |
| > 1000 nM | > 1000 nM | – | CS(=O)(=O)c1ccc(Oc2cncc(C#N)c2)c2c1[C@H](O)[C@H](F)C2 [Compound 313] |
| > 1000 nM | 250 to 1000 nM | – | O=S(=O)(c1ccc(Oc2c(F)ccc3[nH]ncc23)c2c1C(O)C(F)(F)C2)C(F)(F)F (centres unmarked) [Compound 244] |
| > 1000 nM | 250 to 1000 nM | – | O/N=C1/c2c(C(F)(F)F)ccc(OCC(F)F)c2CC1(F)F [Compound 580] |
| 250 to 1000 nM | 50 to 249 nM | – | O/N=C1/c2c(C(F)(F)F)ccc(OCC(F)F)c2[C@@H](F)C1(F)F [Compound 669] |
| > 1000 nM | > 1000 nM | – | C[C@@]1(F)Cc2c(Oc3cc(F)cc(C#N)c3)ccc(S(C)(=O)=O)c2[C@@H]1O [Compound 300] |
| 250 to 1000 nM | 50 to 249 nM | – | O=S1(=O)CC(O)c2c1ccc(Oc1cc(F)cc(F)c1)c2C(F)F (centres unmarked) [Compound 370] |
| > 1000 nM | > 1000 nM | – | CS(=O)(=O)c1ccc(Oc2cc(F)cc(C#N)c2)c2c1[C@H](O)[C@H](F)[C@@H]2O [Compound 296] |
| > 1000 nM | 250 to 1000 nM | – | O=S(=O)(c1ccc(C2=CC(O)CCC2)c2c1[C@H](O)C(F)(F)C2)C(F)(F)F (stereo partly drawn) [Compound 481, (1S)-2,2-difluoro-4-(3-hydroxycyclohex-1-en-1-yl)-7-((trifluoromethyl)sulfonyl)-2,3-dihydro-1H-inden-1-ol] |
| > 1000 nM | – | 250 to 1000 nM | O=S(=O)(c1ccc(Oc2cc(F)cc(Cl)c2)c(Br)c1)C(F)F [Compound 131] |
| > 1000 nM | 50 to 249 nM | – | CCOC(=O)/C=C/c1c(S(=O)(=O)C(F)(F)F)ccc(Oc2cc(F)cc(C#N)c2)c1C [Compound 148] |
